Experimental data taken from patent US4100346A, “Certain 7(o-amino-methyl- or methylaminomethylphenyl- or cyclohexadienyl- or thienylacetamide)-3[1-carboxymethyl-(or ethyl- or propyl-)-tetrazol-5-ylthiomethyl]-3-cephem-4-carboxylic acids” (Bristol-Myers Company, priority 1976, dated 1978).
≈ marks a conversion by molar mass, not a printed value. Where two headings read alike, the source gives them in different places.

Key:
Pasteurella multocida = experiment: Growth inhibitory activity, antibiotic dilution technique; conditions: read-out: Minimum inhibitory concentration
in vivo = conditions: mouse, im
Proteus mirabilis [1] = experiment: Effect of inoculum size on susceptibility of Enterobacteriaceae
Clostridium sp. = experiment: microbe, parasite or virus in culture; type: cell-based
Method: Antibiotic spectrum. […] Procedures were as follows:
c. Obligate anaerobes. The assay was performed on solid medium, consisting of Brain Heart Infusion Broth (BBL) supplemented with 5% defibrinated sheep blood and 1% Ionagar (Colab).

Enterobacter aerogenes = experiment: Effect of inoculum size on susceptibility of Enterobacteriaceae; conditions: Klebsiella aerogenes, read-out: Minimum Inhibitory Concentration, Enterobacter aerogenes strain 1
Alcaligenes sp. = experiment: Growth inhibitory activity, antibiotic dilution technique
Vibrio cholerae = experiment: as above; conditions: read-out: Minimum inhibitory concentration
Haemophilus influenzae = experiment: as above; conditions: including 9 ampicillin-resistant strains
[2] = tested on: Bordetella bronchiseptica; experiment: as above; conditions: read-out: Minimum inhibitory concentration
Proteus mirabilis [3] = experiment: Intramuscular treatment of systemically infected mice; type: in vivo; conditions: im, 3.5 h, read-out: PD50 /treatment
Description: (§1) Treatment of Systemically Infected Mice. The procedures were identical with those published previously [Leitner et al., BL-S640, a Cephalosporin With a Broad Spectrum of Antibacterial Activity: Bioavailability and Therapeutic Properties in Rodents, Antimicrob. Agents Chemother. 7:306-310, (1975)], except that:
(§2) (a) the hog gastric mucin used in infections with Staphylococcus aureus No. 2 was purchased from American Laboratories, Inc., Omaha, Neb. (lot No. 154163) and b) that the medium used to suspend all other organisms contained 3% (rather than 4%) hog gastric mucin (type 1701W, Wilson Laboratories, Inc., Park Forest South, Ill.).
(§3) *Animals were treated twice; 1 and 3.5 hours after infection.

Escherichia coli = experiment: as above; type: in vivo; conditions: im, 3.5 h, read-out: PD50 /treatment
Description: as §1, §2, §3

Providencia stuartii = experiment: as above; type: in vivo; conditions: im, 3.5 h, read-out: PD50 /treatment
Description: as §1, §2, §3

Proteus morganii = experiment: as above; type: in vivo; conditions: Morganella morganii, im, 3.5 h, read-out: PD50 /treatment
Description: as §1, §2, §3

Proteus rettgeri [4] = experiment: as above; type: in vivo; conditions: Providencia rettgeri, im, Proteus rettgeri strain 4, challenge 2×10^6 -3×10^6, treated 1 and 3.5 hours after infection, read-out: PD50 /treatment
Description: as §1, §2, §3

Proteus vulgaris = experiment: as above; type: in vivo; conditions: im, 3.5 h, read-out: PD50 /treatment
Description: as §1, §2, §3

Klebsiella pneumoniae = experiment: as above; type: in vivo; conditions: im, 3.5 h, read-out: PD50 /treatment
Description: as §1, §2, §3

Citrobacter sp. = experiment: as above; type: in vivo; conditions: im, Citrobacter sp. strain 1, challenge 5×10^6 -2×10^7, treated 1 and 3.5 hours after infection, read-out: PD50 /treatment
Description: as §1, §2, §3

Proteus rettgeri [5] = experiment: Growth inhibitory activity, antibiotic dilution technique
[6] = Antibiotic concentration in blood after intramuscular injection; conditions: mouse, im
[7] = tested on: Escherichia coli, Klebsiella pneumoniae, Proteus mirabilis, Proteus vulgaris, Salmonella sp., Shigella sp. and Neisseria meningitidis; experiment: Growth inhibitory activity, antibiotic dilution technique (text summary); type: cell-based; conditions: growth inhibitory activity vs cephalothin, cephaloridine, cefazolin
D. pneumoniae = experiment: MIC by Tube Dilution Technique in Nutrient Broth (Example 9 table); type: cell-based; conditions: Streptococcus pneumoniae; Dp-4 D. pneumoniae A9585
Description: MIC (mcg./ml.) by Tube Dilution Technique in Nutrient Broth.

Str. pneumoniae = experiment: M.I.C. by Tube Dilution in Nutrient Broth (Examples 1 and 2); type: cell-based; conditions: Streptococcus pneumoniae; Str. pneumoniae A9585 (10^-3 dilution of overnight broth culture); 45% Antibiotic Assay Broth + 50% Nutrient Broth + 5% serum
Description: (§4) *45% Antibiotic Assay Broth + 50% Nutrient Broth + 5% serum
(§5) **Dilution of overnight broth culture

Str. pyogenes = experiment: as above; type: cell-based; conditions: Streptococcus pyogenes; Str. pyogenes A9604 (10^-3); 45% Antibiotic Assay Broth + 50% Nutrient Broth + 5% serum
Description: as §4, §5

Streptococcus faecalis = experiment: Growth inhibitory activity, antibiotic dilution technique
[8] = read-out: Minimum Inhibitory Concentration, Proteus mirabilis strain 1, A, Inoculum of 10^2 organisms
[9] = read-out: Minimum Inhibitory Concentration, Proteus mirabilis strain 1, B, Inoculum of 10^6 organisms
[10] = read-out: Minimum Inhibitory Concentration, Proteus mirabilis strain 2, A, Inoculum of 10^2 organisms
[11] = read-out: Minimum Inhibitory Concentration, Proteus mirabilis strain 2, B, Inoculum of 10^6 organisms
[12] = read-out: Minimum Inhibitory Concentration, Proteus mirabilis strain 3, A, Inoculum of 10^2 organisms
[13] = read-out: Minimum Inhibitory Concentration, Proteus mirabilis strain 3, B, Inoculum of 10^6 organisms
[14] = read-out: Minimum Inhibitory Concentration, Proteus mirabilis strain 4, A, Inoculum of 10^2 organisms
[15] = read-out: Minimum Inhibitory Concentration, Proteus mirabilis strain 4, B, Inoculum of 10^6 organisms
[16] = read-out: Minimum Inhibitory Concentration, Proteus mirabilis strain 5, A, Inoculum of 10^2 organisms
[17] = read-out: Minimum Inhibitory Concentration, Proteus mirabilis strain 5, B, Inoculum of 10^6 organisms
[18] = read-out: Minimum inhibitory concentration
[19] = read-out: Minimum inhibitory concentration, Alcaligenes sp., 2 strains, geometric mean when applicable
[20] = read-out: Minimum inhibitory concentration, Alcaligenes sp., 4 strains, geometric mean when applicable
[21] = read-out: Minimum inhibitory concentration, Alcaligenes sp., 5 strains, geometric mean when applicable
[22] = Proteus mirabilis strain 1, challenge 7×10^6 -9×10^6, treated 1 and 3.5 hours after infection
[23] = Proteus mirabilis strain 5, challenge 9×10^5 -3×10^6, treated 1 and 3.5 hours after infection
[24] = Proteus mirabilis strain 8, challenge 6×10^5 -4×10^6, treated 1 and 3.5 hours after infection
[25] = Escherichia coli strain 1, challenge 2×10^5 organisms, treated 1 and 3.5 hours after infection
[26] = Escherichia coli strain 8, challenge 6×10^5 -4×10^6, treated 1 and 3.5 hours after infection
[27] = Escherichia coli strain 9, challenge 7×10^3 -2×10^4, treated 1 and 3.5 hours after infection
[28] = Providencia stuartii strain 2, challenge 1×10^6 ×5×10^6, treated 1 and 3.5 hours after infection
[29] = Providencia stuartii strain 3, challenge 2×10^7, treated 1 and 3.5 hours after infection
[30] = Proteus morganii strain 1, challenge 1×10^5 -4×10^5, treated 1 and 3.5 hours after infection
[31] = Proteus morganii strain 2, challenge 2×10^6 -3×10^6, treated 1 and 3.5 hours after infection
[32] = Proteus vulgaris strain 1, challenge 1×10^6 -2×10^6, treated 1 and 3.5 hours after infection
[33] = Proteus vulgaris strain 3, challenge 4×10^5, treated 1 and 3.5 hours after infection
[34] = Klebsiella pneumoniae strain 1, challenge 4×10^4 -5×10^4, treated 1 and 3.5 hours after infection
[35] = Klebsiella pneumoniae strain 7, challenge 9×10^2 -1×10^3, treated 1 and 3.5 hours after infection

## CC(=O)OCC1=C(C(=O)O)N2C(=O)[C@@H](NC(=O)Cc3cccs3)[C@H]2SC1 [Cephalothin]
Pasteurella multocida
  MIC: 0.09 mg/L (≈ 0.227 µM)
In vivo
  half-life: 11 min
In vivo; 20 mg/kg
  Cmax: 17 µg/mL
Proteus mirabilis [1]; [8]
  MIC: 8 mg/L (≈ 20.2 µM)
Proteus mirabilis [1]; [9]
  MIC: 16 mg/L (≈ 40.4 µM)
Proteus mirabilis [1]; [10]
  MIC: 4 mg/L (≈ 10.1 µM)
Proteus mirabilis [1]; [11]
  MIC: 32 mg/L (≈ 80.7 µM)
Proteus mirabilis [1]; [12]
  MIC: 16 mg/L (≈ 40.4 µM)
Proteus mirabilis [1]; [13]
  MIC: 32 mg/L (≈ 80.7 µM)
Proteus mirabilis [1]; [14]
  MIC: 8 mg/L (≈ 20.2 µM)
Proteus mirabilis [1]; [15]
  MIC: 32 mg/L (≈ 80.7 µM)
Proteus mirabilis [1]; [16]
  MIC: 8 mg/L (≈ 20.2 µM)
Proteus mirabilis [1]; [17]
  MIC: 32 mg/L (≈ 80.7 µM)
Clostridium sp.; [18]
  MIC: 0.5 mg/L (≈ 1.26 µM)
Enterobacter aerogenes; A, Inoculum of 10^2 organisms
  MIC: 32 mg/L (≈ 80.7 µM)
Enterobacter aerogenes; B, Inoculum of 10^6 organisms
  MIC: > 250 mg/L
Alcaligenes sp.; [19]
  MIC: > 125 mg/L
Alcaligenes sp.; [20]
  MIC: > 105 mg/L
Alcaligenes sp.; [21]
  MIC: 1.3 mg/L (≈ 3.28 µM)
Vibrio cholerae
  MIC: 1 mg/L (≈ 2.52 µM)
Haemophilus influenzae
  relative activity against Haemophilus influenzae: more than twice as active
[2]
  MIC: 8 mg/L (≈ 20.2 µM)
Proteus mirabilis [3]; [22]
  ED50: 41 mg/kg
Proteus mirabilis [3]; [23]
  ED50: 11 mg/kg
Proteus mirabilis [3]; [24]
  ED50: 14 mg/kg
Escherichia coli; [25]
  ED50: 42 mg/kg
Escherichia coli; [26]
  ED50: 97 mg/kg
Escherichia coli; [27]
  ED50: 180 mg/kg
Providencia stuartii; [28]
  ED50: > 380 mg/kg
Providencia stuartii; [29]
  ED50: 160 mg/kg
Proteus morganii; [30]
  ED50: > 350 mg/kg
Proteus morganii; [31]
  ED50: > 400 mg/kg
Proteus rettgeri [4]
  ED50: 140 mg/kg
Proteus vulgaris; [32]
  ED50: 11 mg/kg
Proteus vulgaris; [33]
  ED50: 17 mg/kg
Klebsiella pneumoniae; [34]
  ED50: 94 mg/kg
Klebsiella pneumoniae; [35]
  ED50: > 380 mg/kg
Citrobacter sp.
  ED50: > 340 mg/kg
Proteus rettgeri [5]
  percent of strains inhibited: negligible

## NCc1ccccc1CC(=O)N[C@@H]1C(=O)N2C(C(=O)O)=C(CSc3nnnn3CC(=O)O)CS[C@H]12 [Example 1]
Pasteurella multocida
  MIC: 0.25 mg/L (≈ 0.481 µM)
[6]
  Tmax: 15 min
  half-life: 33 min
[6]; 20 mg/kg
  Cmax: 36 µg/mL
[7]
  times more active than the reference cephalosporins: 2 to 16
Proteus mirabilis [1]; [8]
  MIC: 0.5 mg/L (≈ 0.962 µM)
Proteus mirabilis [1]; [9]
  MIC: 2 mg/L (≈ 3.85 µM)
Proteus mirabilis [1]; [10]
  MIC: 0.5 mg/L (≈ 0.962 µM)
Proteus mirabilis [1]; [11]
  MIC: 4 mg/L (≈ 7.7 µM)
Proteus mirabilis [1]; [12]
  MIC: 0.5 mg/L (≈ 0.962 µM)
Proteus mirabilis [1]; [13]
  MIC: 2 mg/L (≈ 3.85 µM)
Proteus mirabilis [1]; [14]
  MIC: 0.5 mg/L (≈ 0.962 µM)
Proteus mirabilis [1]; [15]
  MIC: 2 mg/L (≈ 3.85 µM)
Proteus mirabilis [1]; [16]
  MIC: 0.5 mg/L (≈ 0.962 µM)
Proteus mirabilis [1]; [17]
  MIC: 4 mg/L (≈ 7.7 µM)
D. pneumoniae
  MIC: 0.16 mg/L (≈ 0.308 µM)
Str. pneumoniae
  MIC: 0.13 mg/L
Str. pyogenes
  MIC: 0.13 mg/L
Streptococcus faecalis
  susceptibility of Streptococcus faecalis: resistant
Clostridium sp.; 48 h, read-out: concentration inhibiting all strains
  MIC: 2 mg/L (≈ 3.85 µM)
Clostridium sp.; [18]
  MIC: 2 mg/L (≈ 3.85 µM)
Enterobacter aerogenes; A, Inoculum of 10^2 organisms
  MIC: 1 mg/L (≈ 1.92 µM)
Enterobacter aerogenes; B, Inoculum of 10^6 organisms
  MIC: > 250 mg/L
Alcaligenes sp.; [19]
  MIC: 63 mg/L (≈ 121 µM)
Alcaligenes sp.; [20]
  MIC: > 125 mg/L
Alcaligenes sp.; [21]
  MIC: 2.6 mg/L (≈ 5 µM)
Vibrio cholerae
  MIC: 4 mg/L (≈ 7.7 µM)
Haemophilus influenzae
  relative activity against Haemophilus influenzae: about equally active
[2]
  MIC: 125 mg/L (≈ 241 µM)
Proteus mirabilis [3]; [22]
  ED50: 1.4 mg/kg
Proteus mirabilis [3]; [23]
  ED50: 0.62 mg/kg
Proteus mirabilis [3]; [24]
  ED50: 0.59 mg/kg
Escherichia coli; [25]
  ED50: 0.37 mg/kg
Escherichia coli; [26]
  ED50: 1.5 mg/kg
Escherichia coli; [27]
  ED50: 2.2 mg/kg
Providencia stuartii; [28]
  ED50: 5.9 mg/kg
Providencia stuartii; [29]
  ED50: 8 mg/kg
Proteus morganii; [30]
  ED50: 19 mg/kg
Proteus morganii; [31]
  ED50: 39 mg/kg
Proteus rettgeri [4]
  ED50: 2.4 mg/kg
Proteus vulgaris; [32]
  ED50: 1.8 mg/kg
Proteus vulgaris; [33]
  ED50: 2.5 mg/kg
Klebsiella pneumoniae; [34]
  ED50: 2 mg/kg
Klebsiella pneumoniae; [35]
  ED50: 22 mg/kg
Citrobacter sp.
  ED50: 3.5 mg/kg
Proteus rettgeri [5]; Providencia rettgeri, read-out: percent of strains inhibited
  inhibition at 16 µg/mL: 78%
